Experimental data as given in patent US10759794B2, “2-phenyl-3-(piperazinomethyl)imidazo[1,2-A]pyridine derivatives as blockers of task-1 and task-2 channels, for the treatment of sleep-related breathing disorders” (BAYER PHARMA AKTIENGESELLSCHAFT, priority 2015, dated 2020).

What was measured:
[1] = molecular target: human TASK-3 (Homo sapiens (Human), UniProt Q9NPC2); test: Inhibition of recombinant TASK-3 in stably transfected CHO cells (voltage-sensitive dye, FLIPR); type: cell-based; settings: depolarization induced by 40 mM potassium chloride, Table 2A
human TASK-3, sequence (Q9NPC2 whole entry): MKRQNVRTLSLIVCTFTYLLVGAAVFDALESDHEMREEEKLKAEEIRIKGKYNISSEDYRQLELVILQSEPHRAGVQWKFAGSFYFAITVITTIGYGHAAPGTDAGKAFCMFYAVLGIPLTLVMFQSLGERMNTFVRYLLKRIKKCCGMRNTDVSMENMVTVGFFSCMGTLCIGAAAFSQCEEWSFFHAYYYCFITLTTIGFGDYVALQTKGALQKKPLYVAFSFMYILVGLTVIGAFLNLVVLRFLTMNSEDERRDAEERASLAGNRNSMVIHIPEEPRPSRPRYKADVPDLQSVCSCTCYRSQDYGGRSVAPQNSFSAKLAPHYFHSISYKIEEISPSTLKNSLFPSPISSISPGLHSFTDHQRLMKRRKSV
Method: (§1) B-2. Inhibition of Recombinant TASK-1 and TASK-3 In Vitro
(§2) The investigations on the inhibition of the recombinant TASK-1 and TASK-3 channels were carried out using stably transfected CHO cells. Here, the compounds according to the invention were tested with administration of 40 mM of potassium chloride in the presence of a voltage-sensitive dye using the method described in detail in the following references [Whiteaker et al., Validation of FLIPR membrane potential dye for high-throughput screening of potassium channel modulators, J. Biomol. Screen. 6 (5), 305-312 (2001); Molecular Devices FLIPR Application Note: Measuring membrane potential using the FLIPR® membrane potential assay kit on Fluorometric Imaging Plate Reader (FLIPR®) systems, http://www.moleculardevices.com/reagents-supplies/assay-kits/ion-channels/flipr-membrane-potential-assay-kits]. The activity of the test substances was determined as their ability to inhibit a depolarization induced in the recombinant cells by 40 mM potassium chloride. The concentration which can block half of this depolarization is referred to as IC50.

[2] = molecular target: human TASK-1 (Homo sapiens (Human), UniProt O14649); test: Inhibition of recombinant TASK-1 in stably transfected CHO cells (voltage-sensitive dye, FLIPR); type: cell-based; settings: depolarization induced by 40 mM potassium chloride, Table 2A
human TASK-1, sequence (O14649 whole entry): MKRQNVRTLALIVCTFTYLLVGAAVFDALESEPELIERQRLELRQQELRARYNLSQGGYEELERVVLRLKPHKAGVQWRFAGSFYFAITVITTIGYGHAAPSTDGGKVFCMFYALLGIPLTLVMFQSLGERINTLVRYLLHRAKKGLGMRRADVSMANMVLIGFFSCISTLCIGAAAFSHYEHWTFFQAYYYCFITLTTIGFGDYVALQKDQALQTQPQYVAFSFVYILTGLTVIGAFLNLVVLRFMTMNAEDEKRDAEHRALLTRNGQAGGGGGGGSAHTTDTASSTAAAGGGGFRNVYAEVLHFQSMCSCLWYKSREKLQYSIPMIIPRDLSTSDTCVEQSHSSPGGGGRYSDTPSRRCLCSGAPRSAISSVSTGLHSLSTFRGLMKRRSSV
Method: as §1, §2

| SMILES | IC50 [1] [nM] | IC50 [2] [nM] |
| --- | --- | --- |
| O=C(c1cc(F)ccc1Cl)N1CCN(Cc2c(-c3ccc(Br)cc3)nc3ccccn23)CC1 [Example 6, (4-{[2-(4-Bromophenyl)imidazo[1,2-a]pyridin-3-yl]methyl}piperazin-1-yl)(2-chloro-5-fluorophenyl)methanone] | 360 | 500 |
| O=C(C1CCCCC1)N1CCN(Cc2c(-c3ccc(F)cc3)nc3ccccn23)CC1 [Example 8, (4-{[2-(4-Fluorophenyl)imidazo[1,2-a]pyridin-3-yl]methyl}piperazin-1-yl)(cyclohexyl)methanone] | 2500 | 893 |
| O=C(C1CCCCC1)N1CCN(Cc2c(-c3ccc(Br)cc3)nc3ccccn23)CC1 [Example 9] | 200 | 232 |
| O=C(C1CCC1)N1CCN(Cc2c(-c3ccc(Br)cc3)nc3ccccn23)CC1 [Example 11] | 240 | 378 |
| O=C(c1cc(F)ccc1Cl)N1CCN(Cc2c(-c3ccc(Cl)cc3)nc3ccccn23)CC1 [Example 16] | 110 | 304 |
| O=C(C1CCCCC1)N1CCN(Cc2c(-c3ccc(Cl)cc3)nc3ccccn23)CC1 [Example 17] | 510 | 774 |
| O=C(C1CCC1)N1CCN(Cc2c(-c3ccc(Cl)cc3)nc3ccccn23)CC1 [Example 18] | 120 | 242 |
| Cc1ccccc1C(=O)N1CCN(Cc2c(-c3ccc(Cl)cc3)nc3ccccn23)CC1 [Example 22] | 140 | 387 |
| O=C(c1cccc(OC(F)(F)F)c1)N1CCN(Cc2c(-c3ccc(Cl)cc3)nc3ccccn23)CC1 [Example 24] | 810 | 1140 |
| O=C(c1ccccn1)N1CCN(Cc2c(-c3ccc(Cl)cc3)nc3ccccn23)CC1 [Example 26] | 590 | 708 |
| O=C(C1CCCCO1)N1CCN(Cc2c(-c3ccc(Cl)cc3)nc3ccccn23)CC1 (stereo not shown) [Example 30] | 400 | 1800 |
| CC(C)Oc1cccc(C(=O)N2CCN(Cc3c(-c4ccc(Cl)cc4)nc4ccccn34)CC2)c1 [Example 31] | 1300 | 2100 |
| O=C(c1ccccc1Cl)N1CCN(Cc2c(-c3ccc(Cl)cc3)nc3ccccn23)CC1 [Example 37] | 60 | 370 |
| COc1cc(C)cc(C(=O)N2CCN(Cc3c(-c4ccc(Cl)cc4)nc4ccccn34)CC2)n1 [Example 40] | 770 | 1000 |
| CCOc1cccc(C(=O)N2CCN(Cc3c(-c4ccc(Cl)cc4)nc4ccccn34)CC2)n1 [Example 45] | 63 | 2000 |
| O=C(C1CCC1)N1CCN(Cc2c(-c3ccc(F)cc3)nc3ccccn23)CC1 [Example 49] | 1700 | 1830 |
| COc1ccc(F)cc1C(=O)N1CCN(Cc2c(-c3ccc(F)cc3)nc3ccccn23)CC1 [Example 50] | 1400 | 1620 |
| O=C(c1cc(F)ccc1Cl)N1CCN(Cc2c(-c3ccc(F)cc3)nc3ccccn23)CC1 [Example 51] | 1000 | 1890 |

The remaining compounds from weak to strong by IC50 [1], led by results:

| IC50 [1] [nM] | IC50 [2] [nM] | SMILES |
| --- | --- | --- |
| 2000 | 2500 | CC(C)c1cccc(C(=O)N2CCN(Cc3c(-c4ccc(Cl)cc4)nc4ccccn34)CC2)c1 [Example 33] |
| 830 | 551 | O=C(C1CCCC1)N1CCN(Cc2c(-c3ccc(F)cc3)nc3ccccn23)CC1 [Example 48] |
| 820 | 1900 | O=C(c1cccc(C(F)(F)F)c1)N1CCN(Cc2c(-c3ccc(Cl)cc3)nc3ccccn23)CC1 [Example 25] |
| 790 | 1250 | O=C(C1CCCO1)N1CCN(Cc2c(-c3ccc(Cl)cc3)nc3ccccn23)CC1 (stereo not shown) [Example 35] |
| 380 | 827 | COc1cccc(C(=O)N2CCN(Cc3c(-c4ccc(Br)cc4)nc4ccccn34)CC2)c1 [Example 5, (4-{[2-(4-Bromophenyl)imidazo[1,2-a]pyridin-3-yl]methyl}piperazin-1-yl)(3-methoxyphenyl)methanone] |
| 380 | 1170 | Cc1ccc(F)cc1C(=O)N1CCN(Cc2c(-c3ccc(Br)cc3)nc3ccccn23)CC1 [Example 15] |
| 350 | 672 | COc1ccc(F)cc1C(=O)N1CCN(Cc2c(-c3ccc(Br)cc3)nc3ccccn23)CC1 [Example 13] |
| 310 | 481 | Cc1ccccc1C(=O)N1CCN(Cc2c(-c3ccc(Br)cc3)nc3ccccn23)CC1 [Example 14] |
| 300 | 515 | COc1cccc(C(=O)N2CCN(Cc3c(-c4ccc(Cl)cc4)nc4ccccn34)CC2)c1 [Example 19] |
| 240 | 1200 | O=C(c1cccc(OC2CCOCC2)n1)N1CCN(Cc2c(-c3ccc(Cl)cc3)nc3ccccn23)CC1 [Example 46] |
| 190 | 520 | O=C(c1cccc(Cl)c1)N1CCN(Cc2c(-c3ccc(Cl)cc3)nc3ccccn23)CC1 [Example 36] |
| 190 | 1300 | O=C(c1cccc(OC2CCC2)n1)N1CCN(Cc2c(-c3ccc(Cl)cc3)nc3ccccn23)CC1 [Example 41] |
| 160 | 685 | Cc1ccc(F)cc1C(=O)N1CCN(Cc2c(-c3ccc(Cl)cc3)nc3ccccn23)CC1 [Example 23] |
| 150 | 454 | COc1ccc(F)cc1C(=O)N1CCN(Cc2c(-c3ccc(Cl)cc3)nc3ccccn23)CC1 [Example 21] |
| 130 | 430 | N#Cc1ccccc1C(=O)N1CCN(Cc2c(-c3ccc(Cl)cc3)nc3ccccn23)CC1 [Example 32] |
| 120 | 590 | COc1ccc(F)c(C(=O)N2CCN(Cc3c(-c4ccc(Cl)cc4)nc4ccccn34)CC2)c1 [Example 27] |
| 99 | 1200 | COc1ccc(Cl)c(C(=O)N2CCN(Cc3c(-c4ccc(Cl)cc4)nc4ccccn34)CC2)c1 [Example 29] |
| 98 | 350 | O=C(c1ccccc1F)N1CCN(Cc2c(-c3ccc(Cl)cc3)nc3ccccn23)CC1 [Example 7, (4-{[2-(4-Chlorophenyl)imidazo [1,2-a]pyridin-3-yl]methyl}piperazin-1-yl)(2-fluorophenyl)methanone] |
| 71 | 409 | COc1ccccc1C(=O)N1CCN(Cc2c(-c3ccc(Br)cc3)nc3ccccn23)CC1 [Example 12] |
| 63 | 400 | CC(C)c1ccccc1C(=O)N1CCN(Cc2c(-c3ccc(Cl)cc3)nc3ccccn23)CC1 [Example 34] |
| 52 | 305 | COc1ccccc1C(=O)N1CCN(Cc2c(-c3ccc(Cl)cc3)nc3ccccn23)CC1 [Example 20] |
| 30 | 1000 | O=C(c1cccc(OCC(F)(F)F)n1)N1CCN(Cc2c(-c3ccc(Cl)cc3)nc3ccccn23)CC1 [Example 38] |
| 17 | 270 | O=C(c1cccc(OC(F)F)n1)N1CCN(Cc2c(-c3ccc(Cl)cc3)nc3ccccn23)CC1 [Example 44] |
| 14 | 510 | CCOc1ccccc1C(=O)N1CCN(Cc2c(-c3ccc(Cl)cc3)nc3ccccn23)CC1 [Example 28] |
| 13 | 310 | COc1ccc(Br)c(C(=O)N2CCN(Cc3c(-c4ccc(Cl)cc4)nc4ccccn34)CC2)n1 [Example 42] |
| 10 | 220 | COc1ccc(Cl)c(C(=O)N2CCN(Cc3c(-c4ccc(Cl)cc4)nc4ccccn34)CC2)n1 [Example 43] |
